The values that follow come from patent US10550105B2 (Ribon Therapeutics Inc., priority 2018, dated 2020).

Each structure is given as a SMILES string.

For this test, the target named is PARP7 (Homo sapiens (Human), UniProt Q7Z3E1). Briefly: Enzymatic assay for inhibition of PARP7: TR-FRET displacement of biotinylated Probe A from the TIPARP active site. It is filed as binding. The conditions noted are these: Table A-1. Summed up: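 TR-FRET, ex 320 nm / em 615 and 665 nm. Signal ratio reflects complex formation.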
PARP7, sequence (Q7Z3E1 whole entry): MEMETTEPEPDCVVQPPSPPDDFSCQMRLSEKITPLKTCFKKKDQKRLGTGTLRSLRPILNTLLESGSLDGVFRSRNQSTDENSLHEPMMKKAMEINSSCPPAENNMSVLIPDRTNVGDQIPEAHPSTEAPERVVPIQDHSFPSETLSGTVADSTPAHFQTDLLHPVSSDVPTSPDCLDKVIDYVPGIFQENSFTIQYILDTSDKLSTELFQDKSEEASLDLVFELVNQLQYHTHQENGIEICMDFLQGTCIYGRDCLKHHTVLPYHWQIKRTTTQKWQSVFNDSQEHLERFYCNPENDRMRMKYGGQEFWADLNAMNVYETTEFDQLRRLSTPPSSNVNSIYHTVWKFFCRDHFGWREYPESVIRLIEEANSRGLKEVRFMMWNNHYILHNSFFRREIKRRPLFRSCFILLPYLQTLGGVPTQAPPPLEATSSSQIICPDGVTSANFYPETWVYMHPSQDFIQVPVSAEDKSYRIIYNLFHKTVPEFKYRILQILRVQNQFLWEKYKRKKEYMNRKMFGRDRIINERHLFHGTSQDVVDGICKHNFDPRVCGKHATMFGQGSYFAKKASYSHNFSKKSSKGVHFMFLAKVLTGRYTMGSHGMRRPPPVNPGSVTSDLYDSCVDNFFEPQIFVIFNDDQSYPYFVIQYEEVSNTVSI

Take `CC(=O)N1CCC(Oc2cc3c(cn2)CN(c2cn[nH]c(=O)c2C(F)(F)F)C3)CC1` [Example 13]: the half-inhibitory concentration (IC50) is less than 100 nM.

Regarding `CN(C)CCOc1cc2c(cc1F)CN(c1cn[nH]c(=O)c1C(F)(F)F)C2` [Example 14, 5-[5-[2-(dimethylamino)ethoxy]-6-fluoro-2,3-dihydro-1H-isoindol-2-yl]-4-(trifluoromethyl)-2,3-dihydropyridazin-3-one; formic acid], the half-maximal inhibitory concentration (IC50) was less than 100 nM.

`O=c1[nH]ncc(N2Cc3ccnc(OCc4cccnc4)c3C2)c1C(F)(F)F` [Example 15, 5-[4-(pyridin-3-ylmethoxy)-1H,2H,3H-pyrrolo[3,4-c]pyridin-2-yl]-4-(trifluoromethyl)-2,3-dihydropyridazin-3-one] registered an IC50 of less than 100 nM.

For `O=c1[nH]ncc(N2Cc3ccnc(OC4CCNCC4)c3C2)c1C(F)(F)F` [Example 16, 5-[4-(piperidin-4-yloxy)-1H,2H,3H-pyrrolo[3,4-c]pyridin-2-yl]-4-(trifluoromethyl)-2,3-dihydropyridazin-3-one], the IC50 fell in the range of 100 to 1000 nM.

`O=c1[nH]ncc(N2Cc3ccc(CNc4ccncc4)cc3C2)c1C(F)(F)F` [Example 17, 5-(5-[[(pyridin-4-yl)amino]methyl]-2,3-dihydro-1H-isoindol-2-yl)-4-(trifluoromethyl)-2,3-dihydropyridazin-3-one]: the IC50 is less than 100 nM.

`O=c1[nH]ncc(N2Cc3cc(F)c(OCCN4CCOCC4)cc3C2)c1C(F)(F)F` [Example 19, 5-[5-fluoro-6-[2-(morpholin-4-yl)ethoxy]-2,3-dihydro-1H-isoindol-2-yl]-4-(trifluoromethyl)-2,3-dihydropyridazin-3-one] registered an IC50 of less than 100 nM.

In turn, `O=c1[nH]ncc(N2Cc3cc(F)c(OCC4CCNCC4)cc3C2)c1C(F)(F)F` [Example 20, 5-[5-fluoro-6-(piperidin-4-ylmethoxy)-2,3-dihydro-1H-isoindol-2-yl]-4-(trifluoromethyl)-2,3-dihydropyridazin-3-one] displayed an IC50 of less than 100 nM.

The compound `CC(=O)N1CCC(COc2cc3c(cc2F)CN(c2cn[nH]c(=O)c2C(F)(F)F)C3)CC1` [Example 21, 5-[5-[(1-acetylpiperidin-4-yl)methoxy]-6-fluoro-2,3-dihydro-1H-isoindol-2-yl]-4-(trifluoromethyl)-2,3-dihydropyridazin-3-one] registered an IC50 of less than 100 nM.

`CN1CCC(COc2cc3c(cc2F)CN(c2cn[nH]c(=O)c2C(F)(F)F)C3)CC1` [Example 22, 5-[5-fluoro-6-[(1-methylpiperidin-4-yl)methoxy]-2,3-dihydro-1H-isoindol-2-yl]-4-(trifluoromethyl)-2,3-dihydropyridazin-3-one] showed an IC50 of less than 100 nM.

`O=c1[nH]ncc(N2Cc3cc(F)c(CNC4CCNCC4)cc3C2)c1C(F)(F)F` [Example 23, 5-(5-fluoro-6-[[(piperidin-4-yl)amino]methyl]-2,3-dihydro-1H-isoindol-2-yl)-4-(trifluoromethyl)-2,3-dihydropyridazin-3-one] displayed an IC50 of less than 100 nM.

For `CC(=O)N1CCC(NCc2cc3c(cc2F)CN(c2cn[nH]c(=O)c2C(F)(F)F)C3)CC1` [Example 24, 5-(5-[[(1-acetylpiperidin-4-yl)amino]methyl]-6-fluoro-2,3-dihydro-1H-isoindol-2-yl)-4-(trifluoromethyl)-2,3-dihydropyridazin-3-one], the IC50 is less than 100 nM.

Consider `CN1CCC(NCc2cc3c(cc2F)CN(c2cn[nH]c(=O)c2C(F)(F)F)C3)CC1` [Example 25, 5-(5-fluoro-6-[[(1-methylpiperidin-4-yl)amino]methyl]-2,3-dihydro-1H-isoindol-2-yl)-4-(trifluoromethyl)-2,3-dihydropyridazin-3-one], for which the concentration for half-maximal inhibition (IC50) was less than 100 nM.

`O=c1[nH]ncc(N2Cc3cc(F)c(N4CCOCC4)cc3C2)c1C(F)(F)F` [Example 26, 5-[5-fluoro-6-(morpholin-4-yl)-2,3-dihydro-1H-isoindol-2-yl]-4-(trifluoromethyl)-2,3-dihydropyridazin-3-one]: the concentration for half-maximal inhibition (IC50) is less than 100 nM.

For `O=c1[nH]ncc(N2Cc3cccc(OC4CCN(C(c5ccccc5)c5ccccc5)CC4)c3C2)c1C(F)(F)F` [Example 27, 5-(4-[[1-(diphenylmethyl)piperidin-4-yl]oxy]-2,3-dihydro-1H-isoindol-2-yl)-4-(trifluoromethyl)-2,3-dihydropyridazin-3-one], the IC50 lay within 100 to 1000 nM.

As for `O=c1[nH]ncc(N2Cc3ccc(OC4CCN(C(c5ccccc5)c5ccccc5)CC4)cc3C2)c1C(F)(F)F` [Example 28, 5-(5-[[1-(diphenylmethyl)piperidin-4-yl]oxy]-2,3-dihydro-1H-isoindol-2-yl)-4-(trifluoromethyl)-2,3-dihydropyridazin-3-one], the IC50 is less than 100 nM.

For the compound `CN(CCOc1cccc(C(=O)N2CCN(c3ccc(C#N)cn3)CC2)c1)c1cn[nH]c(=O)c1C(F)(F)F` [Example 29, 6-(4-[[3-(2-[methyl[6-oxo-5-(trifluoromethyl)-1,6-dihydropyridazin-4-yl]amino]ethoxy)phenyl]carbonyl]piperazin-1-yl)pyridine-3-carbonitrile], the IC50 is less than 100 nM.

`N#Cc1ccc(N2CCN(C(=O)c3cccc(OC[C@H]4CCCN4c4cn[nH]c(=O)c4C(F)(F)F)c3)CC2)nc1` [Example 31, 6-[4-[(3-[[(2R)-1-[6-oxo-5-(trifluoromethyl)-1,6-dihydropyridazin-4-yl]pyrrolidin-2-yl]methoxy]phenyl)carbonyl]piperazin-1-yl]pyridine-3-carbonitrile] came in with a half-inhibitory concentration (IC50) not below 1000 nM.

Compound `N#Cc1ccc(N2CCN(C(=O)c3cccc(OC[C@@H]4CCCN4c4cn[nH]c(=O)c4C(F)(F)F)c3)CC2)nc1` [Example 32, 6-[4-[(3-[[(2S)-1-[6-Oxo-5-(trifluoromethyl)-1,6-dihydropyridazin-4-yl]pyrrolidin-2-yl]methoxy]phenyl)carbonyl]piperazin-1-yl]pyridine-3-carbonitrile] yielded an IC50 of less than 100 nM.

Compound `N#Cc1ccc(N2CCN(C(=O)c3cccc(OC[C@@H]4CCCN4c4cn[nH]c(=O)c4C(F)(F)F)c3)C(CO)C2)nc1` (some centres unmarked) [Example 33] returned an IC50 of less than 100 nM.

As to `N#Cc1ccc(N2CCN(C(=O)c3cccc(OC[C@@H]4CCCN4c4cn[nH]c(=O)c4C(F)(F)F)c3)CC2=O)nc1` [Example 34, 6-[2-oxo-4-[(3-[[(2S)-1-[6-oxo-5-(trifluoromethyl)-1,6-dihydropyridazin-4-yl]pyrrolidin-2-yl]methoxy]phenyl)carbonyl]piperazin-1-yl]pyridine-3-carbonitrile], the 50% inhibitory concentration (IC50) is less than 100 nM.

`CC[C@@H](COCCC(=O)N1CCN(c2ncc(C(F)(F)F)cn2)CC1)Oc1cn[nH]c(=O)c1C(F)(F)F` [Example 37, 5-[[(2S)-1-(3-Oxo-3-[4-[5-(trifluoromethyl)pyrimidin-2-yl]piperazin-1-yl]propoxy)butan-2-yl]oxy]-4-(trifluoromethyl)-2,3-dihydropyridazin-3-one] showed an IC50 of less than 100 nM.

With `N#Cc1ccc(N2CCN(C(=O)c3ccnc(OC[C@H]4c5ccccc5CN4c4cn[nH]c(=O)c4C(F)(F)F)n3)CC2)nc1` [Example 38 Isomer B, 6-[4-[(2-[[(1R)-2-[6-Oxo-5-(trifluoromethyl)-1,6-dihydropyridazin-4-yl]-2,3-dihydro-1H-isoindol-1-yl]methoxy]pyrimidin-4-yl)carbonyl]piperazin-1-yl]pyridine-3-carbonitrile], the 50% inhibitory concentration (IC50) is less than 100 nM.

The compound `N#Cc1ccc(N2CCN(C(=O)c3cccc(OCC4CCCCN4c4cn[nH]c(=O)c4C(F)(F)F)c3)CC2)nc1` (centres unmarked) [Example 40, 6-(4-[[3-([1-[6-oxo-5-(trifluoromethyl)-1,6-dihydropyridazin-4-yl]piperidin-2-yl]methoxy)phenyl]carbonyl]piperazin-1-yl)pyridine-3-carbonitrile] gave a half-maximal inhibitory concentration (IC50) of 100 to 1000 nM.

The compound `N#Cc1ccc(N2CCN(C(=O)c3cccc(OCCNc4cn[nH]c(=O)c4C(F)(F)F)c3)CC2)nc1` [Example 41, 6-(4-[[3-(2-[[6-oxo-5-(trifluoromethyl)-1,6-dihydropyridazin-4-yl]amino]ethoxy)phenyl]carbonyl]piperazin-1-yl)pyridine-3-carbonitrile] came in with a concentration for half-maximal inhibition (IC50) of less than 100 nM.

Regarding `N#Cc1ccc(N2CCN(C(=O)c3cccc(OCCOc4cn[nH]c(=O)c4C(F)(F)F)c3)CC2)nc1` [Example 42, 6-(4-[[3-(2-[[6-oxo-5-(trifluoromethyl)-1,6-dihydropyridazin-4-yl]oxy]ethoxy)phenyl]carbonyl]piperazin-1-yl)pyridine-3-carbonitrile], the half-inhibitory concentration (IC50) is less than 100 nM.

`N#Cc1ccc(N2CCN(C(=O)c3ccc(OCCOc4cccc5c4CN(c4cn[nH]c(=O)c4C(F)(F)F)C5)cc3)CC2)nc1` [Example 43, 6-[4-([4-[2-([2-[6-oxo-5-(trifluoromethyl)-1,6-dihydropyridazin-4-yl]-2,3-dihydro-1H-isoindol-4-yl]oxy)ethoxy]phenyl]carbonyl)piperazin-1-yl]pyridine-3-carbonitrile] came in with a 50% inhibitory concentration (IC50) of less than 100 nM.

`O=c1[nH]ncc(N2Cc3cc(F)c(OCC4CCCNC4)cc3C2)c1C(F)(F)F` (centres unmarked) [Example 44, 5-[5-fluoro-6-(piperidin-3-ylmethoxy)-2,3-dihydro-1H-isoindol-2-yl]-4-(trifluoromethyl)-2,3-dihydropyridazin-3-one] came in with an IC50 of less than 100 nM.

`CC(=O)N1CCCC(COc2cc3c(cc2F)CN(c2cn[nH]c(=O)c2C(F)(F)F)C3)C1` (centres unmarked) [Example 45, 5-[5-[(1-acetylpiperidin-3-yl)methoxy]-6-fluoro-2,3-dihydro-1H-isoindol-2-yl]-4-(trifluoromethyl)-2,3-dihydropyridazin-3-one] came in with an IC50 of less than 100 nM.

Compound `N#Cc1ccc(N2CCN(C(=O)c3nccc(OCC4c5ccccc5CN4c4cn[nH]c(=O)c4C(F)(F)F)n3)CC2)nc1` (centres unmarked) [Example 46, 6-(4-[[4-([2-[6-oxo-5-(trifluoromethyl)-1,6-dihydropyridazin-4-yl]-2,3-dihydro-1H-isoindol-1-yl]methoxy)pyrimidin-2-yl]carbonyl]piperazin-1-yl)pyridine-3-carbonitrile] showed a 50% inhibitory concentration (IC50) of less than 100 nM.
